pKi: −log10 of the molar value. Structures can show the parent of a compound that is named as a salt.
Columns and labels:
[1] = biological target: T1, cloned human 5-HT6 receptor (Homo sapiens, UniProt P50406); assay: 5-HT6 receptor binding assay ([3H]-LSD radioligand, SPA beads); conditions: membranes of Hela cells containing cloned human 5-HT6 receptor, IC50 converted by Cheng-Prusoff
T1 construct: host or cells: HeLa cells (G-418 selected); membrane preparation
Protocol: 5-HT6 Receport Binding Assay
Growth of Cells and Membrane Preparation
Hela cells containing the cloned human 5-HT6 receptor were acquired from Dr. David R. Sibley's laboratory in National Institute of Health (see Sibley, D. R., J. Neurochemistry, 66, 47-56, 1996). Cells were grown in high glucose Dulbecco's modified Eagle's medium, supplemented with L-glutamine, 0.5% sodium pyruvate, 0.3% penicillin-streptomycin, 0.025% G-418 and 5% Gibco fetal bovine serum and then were harvested, when confluent, in cold phosphate buffered saline.
Harvested intact cells were washed once in cold phosphate-buffered saline. The cells were pelleted and resuspended in 100 ml of cold 50 mM Tris, 5 mM EDTA and 5 mM EGTA, pH 7.4. Homogenization was with a Vir Tishear generator, 4 cycles for 30 seconds each at setting 50. The homogenized cells were centrifuged at […] for 10 minutes and the supernatant was removed. The pellet was resuspended in 100 ml of the above buffer and rehomogenized for 2 cycles. The rehomogenized cells were then centrifuged at […] for 10 minutes and the supernatant was removed. The combined supernatant (200 ml) was centrifuged at 23,000 RPM (80,000×g) for 1 hour in a Beckman Rotor (42.1 Ti). The membrane pellet was resupended in 50-8-ml of assay buffer containing HEPES 20 mM, MgCl2 10 mM, NaCl 150 mM, EDTA 1 mM, pH 7.4 and stored frozen in aliqouts at −70° C.
5-HT6 Receptor Binding Assay
The radioligand binding assay used [^3H]-lysergic acid diethylamide (LSD). The assay was carried out in Wallac 96-well sample plates by the addition of 11 μl of the test sample at the appropriate dilution (the assay employed 11 serial concentrations of samples run in duplicate), 11 μl of radioligand, and 178 μl of a washed mixture of WGA-coated SPA beads and membranes in binding buffer. The plates were shaken for about 5 minutes and then incubated at room temperature for 1 hour. The plates were then loaded into counting cassettes and counted in a Wallac MicroBeta Trilux scintillation counter.
Binding Constant (Ki) Determination
Eleven serial dilutions of test compounds were distributed to assay plates using the PE/Cetus Pro/Pette pipetter. These dilutions were, followed by radioligand and the bead-membrane mixture prepared as described above. The specifically bound cpm obtained were fit to a one-site binding model using GraphPad Prism ver. 2.0. Estimated IC50 values were converted to Ki values using the Cheng-Prusoff equation (Cheng, Y. C. et al., Biochem. Pharmacol., 22, 3099-108, 1973).

T1 sequence (P50406 whole entry): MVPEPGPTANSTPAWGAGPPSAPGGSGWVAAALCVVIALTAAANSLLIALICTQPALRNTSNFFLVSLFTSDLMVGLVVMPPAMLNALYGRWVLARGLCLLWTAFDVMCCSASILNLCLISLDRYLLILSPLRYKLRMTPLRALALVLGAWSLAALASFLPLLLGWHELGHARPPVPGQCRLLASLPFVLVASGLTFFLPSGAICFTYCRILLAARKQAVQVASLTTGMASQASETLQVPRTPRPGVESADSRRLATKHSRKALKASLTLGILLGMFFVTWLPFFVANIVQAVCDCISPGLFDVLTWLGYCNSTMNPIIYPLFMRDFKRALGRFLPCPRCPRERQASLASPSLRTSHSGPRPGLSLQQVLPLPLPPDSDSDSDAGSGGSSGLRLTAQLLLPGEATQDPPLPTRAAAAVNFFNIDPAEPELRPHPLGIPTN

Row | SMILES | melting point | pKi [1]
1 | CCN(CC)CCOc1cccc2c1c1cccc3c1n2C(c1ccccc1)CO3 (centres unmarked) (as salt: maleic acid salt) [Example 3, N,N-Diethyl-2-[(1-phenyl-1,2-dihydro[1,4]oxazino[2,3,4-jk]carbazol-7-yl)oxy]-1-ethanamine] | 105 to 107 °C | 
2 | NCCOc1cccc2c1c1cccc3c1n2[C@@H](c1ccccc1)CO3 [Example 1, (S)-(+)-[(1-Phenyl-1,2-dihydro[1,4]oxazino[2,3,4-jk]carbazol-7-yl)oxy]ethanamine] |  | 7.12
3 | CS(=O)(=O)O.NCCOc1cccc2c1c1cccc3c1n2[C@H](c1ccccc1)CO3 [Example 2, (R)-(−)-[(1-Phenyl-1,2-dihydro[1,4]oxazino[2,3,4-jk]carbazol-7-yl)oxy]ethanamine] | 236 °C | 
4 | CCN(CC)CCOc1cccc2c1c1cccc3c1n2C(c1ccccc1)CO3 (centres unmarked) [Example 3, N,N-Diethyl-2-[(1-phenyl-1,2-dihydro[1,4]oxazino[2,3,4-jk]carbazol-7-yl)oxy]-1-ethanamine] |  | 8.12
5 | NCCOc1cccc2c1c1cccc3c1n2C(c1ccccc1)CO3 (centres unmarked) [Example 4, [(1-Phenyl-1,2-dihydro[1,4]oxazino[2,3,4-jk]carbazol-7-yl)oxy]ethanamine] |  | 8.77
6 | CCNCCOc1cccc2c1c1cccc3c1n2C(c1ccccc1)CO3.O=C(O)/C=C\C(=O)O (centres unmarked) [Example 6, N-Ethyl-2-[(1-phenyl-1,2-dihydro[1,4]oxazino[2,3,4-jk]carbazol-7-yl)oxy]-1-ethanamine] | 105 °C | 8.57
7 | O=CNCCOc1cccc2c1c1cccc3c1n2C(c1ccccc1)CO3 (centres unmarked) [Example 7, 2-[(1-Phenyl-1,2-dihydro[1,4]oxazino[2,3,4-jk]carbazol-7-yl)oxy]ethylformamide] |  | 7.41
8 | CNCCOc1cccc2c1c1cccc3c1n2C(c1ccccc1)CO3 (centres unmarked) [Example 8, N-Methyl-2-[(1-phenyl-1,2-dihydro[1,4]oxazino[2,3,4-jk]carbazol-7-yl)oxy]-1-ethanamine] |  | 8.70
9 | NCCOc1c(Cl)ccc2c1c1cccc3c1n2C(c1ccccc1)CO3 (centres unmarked) [Example 9, 2-[(8-Chloro-1-phenyl-1,2-dihydro[1,4]oxazino[2,3,4-jk]carbazol-7-yl)oxy]-1-ethanamine] |  | 8.24
10 | CCNCCOc1cccc2c1c1cc(C)cc3c1n2C(c1ccccc1)CO3 (centres unmarked) [Example 11, N-Ethyl-2-[(5-methyl-1-phenyl-1,2-dihydro[1,4]oxazino[2,3,4-jk]carbazol-7-yl)oxy]-1-ethanamine] |  | 8.28
11 | CC(C)(C)OC(=O)N1CCN(CCOc2cccc3c2c2cccc4c2n3C(c2ccccc2)CO4)CC1 (centres unmarked) [Example 12, tert-Butyl 4-{2-[(1-phenyl-1,2-dihydro[1,4]oxazino[2,3,4-jk]carbazol-7-yl)oxy]ethyl}-1-piperazinecarboxylate] | 72 °C | 7.46
12 | c1ccc(C2COc3cccc4c5c(OCCN6CCNCC6)cccc5n2c34)cc1 (centres unmarked) [Example 13, 1-Phenyl-1,2-dihydro[1,4]oxazino[2,3,4-jk]carbazol-7-yl 2-(1-piperazinyl)ethyl Ether] | 72 °C | 7.24
13 | CN1CCN(CCOc2cccc3c2c2cccc4c2n3C(c2ccccc2)CO4)CC1 (centres unmarked) [Example 14, 2-(4-Methyl-1-piperazinyl)ethyl 1-phenyl-1,2-ihydro[1,4]oxazino [2,3,4-jk]carbazol-7-yl Ether] | 57 °C | 8.16
14 | c1ccc(C2COc3cccc4c5c(OCCN6CCOCC6)cccc5n2c34)cc1 (centres unmarked) [Example 15, 2-(4-Morpholinyl)ethyl 1-phenyl-1,2-dihydro[1,4]oxazino[2,3,4-jk]carbazol-7-yl Ether] |  | 7.01
15 | c1ccc(C2COc3cccc4c5c(OCCN6CCCCC6)cccc5n2c34)cc1 (centres unmarked) [Example 16, 1-Phenyl-1,2-dihydro[1,4]oxazino[2,3,4-jk]carbazol-7-yl 2-(1-piperidinyl)ethyl Ether] |  | 8.30
16 | OCCNCCOc1cccc2c1c1cccc3c1n2C(c1ccccc1)CO3 (centres unmarked) [Example 17, 2-({2-[(1-Phenyl-1,2-dihydro[1,4]oxazino[2,3,4-jk]carbazol-7-yl)oxy]ethyl}amino)-1-ethanol] |  | 8.96
17 | CN(C)CCOc1cccc2c1c1cccc3c1n2C(c1ccccc1)CO3 (centres unmarked) [Example 18, N,N-dimethyl-2-[(1-phenyl-1,2-dihydro[1,4]oxazino[2,3,4-jk]carbazol-7-yl)oxy]-1-ethanamine] | 117 to 118 °C | 8.48
18 | Cc1cc2c3c(c1)c1c(OCCN)cccc1n3C(c1ccccc1)CO2 (centres unmarked) [Example 19, 2-[(5-Methyl-1-phenyl-1,2-dihydro[1,4]oxazino[2,3,4-jk]carbazol-7-yl)oxy]-1-ethanamine] |  | 8.10
19 | CCN(CC)CCCCOc1cccc2c1c1cccc3c1n2C(c1ccccc1)CO3 (centres unmarked) [Example 20, N,N-Diethyl-N-{4-[(1-phenyl-1,2-dihydro[1,4]oxazino[2,3,4-jk]carbazol-7-yl)oxy]butyl}amine] |  | 7.55
20 | CCN(CC)CCCOc1cccc2c1c1cccc3c1n2C(c1ccccc1)CO3 (centres unmarked) [Example 21, N,N-Diethyl-N-{3-[(1-phenyl-1,2-dihydro[1,4]oxazino[2,3,4-jk]carbazol-7-yl)oxy]propyl}amine] |  | 7.72
21 | OCCNCCOc1cccc2c1c1cccc3c1n2[C@H](c1ccccc1)CO3 [Example 22, [(2-{[(1R)-1-Phenyl-1,2-dihydro[1,4]oxazino[2,3,4-jk]carbazol-7-yl]oxy}ethyl)amino]ethanol] |  | 8.52

From US6821970B2, “Oxazinocarbazoles for the treatment of CNS diseases” (Pharmacia & Upjohn Company, priority 1999, dated 2004)
